Assay results published in patent US10703761B2, “Bile acid receptor modulators and methods of use thereof” (City of Hope, priority 2016, dated 2020).
Entries after “also recorded” stand apart in the source; their conditions may differ.

Columns and labels:
TGR5 = target: T1, TGR5 (Homo sapiens, UniProt Q8TDU6); assay: TGR5 luciferase reporter (pCRE-luc) / cAMP assay in HEK293 cells overexpressing TGR5; format: cell-based
T1 construct: expressed in transfected cells
T1 sequence (Q8TDU6 1-330): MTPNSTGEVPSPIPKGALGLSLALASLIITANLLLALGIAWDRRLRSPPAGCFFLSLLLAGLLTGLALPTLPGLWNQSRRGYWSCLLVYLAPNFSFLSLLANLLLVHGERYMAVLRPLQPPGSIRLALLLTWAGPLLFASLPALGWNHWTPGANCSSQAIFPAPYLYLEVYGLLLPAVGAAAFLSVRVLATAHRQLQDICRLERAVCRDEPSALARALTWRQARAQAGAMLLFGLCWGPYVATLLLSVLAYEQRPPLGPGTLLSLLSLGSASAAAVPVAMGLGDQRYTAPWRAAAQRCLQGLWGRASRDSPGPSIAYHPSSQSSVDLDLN
Experimental: FIG. 1(A-C): FIG. 1(A) Chemical structure of berberine. FIG. 1(B) HEK293 cells lacking or stably-overexpressing TGR5 were treated with increasing doses of berberine for 16 h. TGR5-reporting activity was evaluated by luciferase assay (n=8). FIG. 1(C) The ability of berberine to activate TGR5 and FXR was evaluated in comparison to the synthetic FXR agonist GW4064. Ligands were used at a concentration of […] (n=4). Statistical analysis was performed using paired t-test. **p<0.05, ***p<0.001.
FIG. 2(A) HEK293 cells lacking or overexpressing TGR5 were treated with increasing doses of berberine for 16 hours and TGR5-reporting activity was evaluated using luciferase assays. FIG. 2(B) Ability of berberine to activate metabolic nuclear receptors was evaluated in comparison to native ligands. All ligands were used at a 10 μM concentration.
To potentially identify selective TGR5 modulators via a novel strategy, we synthesized and screened a focused chemical compounds library to search for derivatives that have higher affinity and/or higher selectivity to effectively modulate TGR5 activity in vivo. A focused small chemical compound library was evaluated in in vitro TGR5 assays to search for berberine-derived agonists that have higher affinity, potency, and/or higher selectivity for TGR5. The receptor binding assay was performed by measuring the level of cyclic AMP (cAMP) using TR-FRET (time-resolved fluorescence resonance energy transfer) assay. The level of intracellular cAMP was determined with Lance kit (PerkinElmer). Lithocholic acid was used as control ligand. Z′ factor was used to validate assays. Non-linear regression curves, without constraints, was performed by using four parameter equation and GraphPad Prism Software (GraphPad Inc.) to obtain the EC50 values. All drugs tested positive with TR-FRET for TGR5 binding affinities were evaluated in cell-based assays, using HEK293 cells stably over expressing human TGR5 transfected with the cAMP-sensitive reporter plasmid pCRE-Luc. Compounds were initially tested at doses of […] and the relative fold activation on TGR5 was determined. […]

[1] = target: T2, Gal4 DNA binding domain FXR ligand-binding domain fusion protein (Homo sapiens, UniProt Q96RI1); assay: Gal4 DBD-FXR LBD chimera transactivation assay in HEK 293 cells; format: cell-based; conditions: CDCA 100 μM, compounds 10 μM
T2 construct: expressed in transfected cells; host or cells: HEK 293
T2 sequence (Q96RI1 262-486 limits assumed): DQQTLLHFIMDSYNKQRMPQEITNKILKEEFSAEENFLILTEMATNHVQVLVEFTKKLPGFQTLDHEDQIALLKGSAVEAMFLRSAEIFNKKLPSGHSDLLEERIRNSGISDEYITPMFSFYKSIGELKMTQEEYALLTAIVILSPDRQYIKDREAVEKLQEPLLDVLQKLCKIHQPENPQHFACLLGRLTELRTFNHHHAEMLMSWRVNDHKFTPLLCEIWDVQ
Experimental: FIG. 10: Berberine derivatives inhibit FXR transactivation. HEK 293 cells were cotransfected with a luciferase reporter plasmid containing five copies of the Gal4 binding site and an expression vector for a Gal4 DNA binding domain FXR ligand-binding domain fusion protein, along with a CMX-β-gal internal control. CDCA: 100 μM, Compounds: 10 μM
In the presence of 100 μM CDCA, a concentration approximately threefold above that required for half-maximal activation of FXR, 10 μM selected berberine derivatives decreased FXR transactivation by nearly 50%.

DIO mice = assay: Hepatic lipid accumulation, Oil Red O staining; format: in vivo, mouse
Experimental: FIG. 9(A). lean mice. FIG. 9(B). DIO mice, FIG. 9(C). berberine, and FIG. 9(D). DY319. Intracellular lipids were stained with Oil Red O and visualized by phase-contrast microscopy (×200 magnification).
Cells on day 7 were washed twice with PBS, fixed with 10% neutral buffered formalin for 1 h at room temperature, washed with PBS and then dried completely. The fixed cells were stained with Oil Red O in an isopropanol/distilled water (6:4) solution for 30 min at room temperature and then washed twice with distilled water. The stained lipid droplets were observed, and microscopic images were obtained from randomly selected fields under a phase contrast microscope (AX70; Olympus, Tokyo, Japan) equipped with a digital camera and processed using ImagePro Plus software (Media Cybernetics, Silver Spring, Md., USA).

[2] = oral 1.0 g/day/person for 3 months; cited from earlier work

Question: With `COc1ccc2cc3[n+](cc2c1OC)CCc1cc2c(cc1-3)OCO2` [berberine] as the compound, how does the “TGR5-reporting effect in cells lacking TGR5” value (TGR5; HEK293 cells lacking TGR5) read?
Answer: lost

Question: And the TGR5 activation (TGR5; HEK293 cells overexpressing TGR5, 16 h)?
Answer: is a ligand for the G protein-coupled receptor TGR5; also recorded: can activate the bile acid receptor TGR5

Question: And the EC50 (TGR5; unpublished data, read-out: TGR5 agonist EC50)?
Answer: 0.46 µM

Question: And the “Transactivation by GAL4 DBD-FXR LBD chimera” value [1]?
Answer: did inhibit transactivation

Question: What about the Hepatic lipid accumulation (DIO mice) of the same compound?
Answer: prevent hepatic lipid accumulation

Question: And the “Efficacy and safety in type 2 diabetes and dyslipidemia” value [2]?
Answer: effective and safe
